From US8288389B2, “Piperazine derivative having affinity for the histamine H3 receptor” (Glaxo Group Limited, priority 2007, dated 2012)
Counter-ions that a name gives are not always drawn. One block for each molecule: values may come before it.

Columns and labels:
[1] = Preliminary HCl-salt-formation and crystallisation experiments (relative stability of crystal forms); assay type: physicochemical; details: compared with crystalline Form 1
Source text: Crystalline Form 1 (or a predominance of crystalline Form 1) is often formed initially depending on the conditions, but, depending on the conditions (such as the type of solvent and the solubility of crystalline Form 1 in it, and/or the temperature and/or temperature time course, and/or the contact time of the crystalline Form 1 with the solvent), the crystalline Form 1 can then often convert to crystalline Form 2 to a greater or lesser extent when in contact with a suitable solvent i.e. a solvent suitable for converting crystalline Form 1 to crystalline Form 2.

[2] = Plasma clearance in the pig-PET study; assay type: in vivo, Yorkshire-Landrace pig; details: 50 micrograms/kg i.v.
[3] = target: H3 receptor (Sus scrofa, UniProt A0A287B9V8); assay: Pig-PET study with [11C]GSK189254: pig brain H3 receptor occupancy over time and kon-koff limited model; details: 50 micrograms/kg i.v.; for koff: iv
Chain of H3 receptor (A0A287B9V8 1-448): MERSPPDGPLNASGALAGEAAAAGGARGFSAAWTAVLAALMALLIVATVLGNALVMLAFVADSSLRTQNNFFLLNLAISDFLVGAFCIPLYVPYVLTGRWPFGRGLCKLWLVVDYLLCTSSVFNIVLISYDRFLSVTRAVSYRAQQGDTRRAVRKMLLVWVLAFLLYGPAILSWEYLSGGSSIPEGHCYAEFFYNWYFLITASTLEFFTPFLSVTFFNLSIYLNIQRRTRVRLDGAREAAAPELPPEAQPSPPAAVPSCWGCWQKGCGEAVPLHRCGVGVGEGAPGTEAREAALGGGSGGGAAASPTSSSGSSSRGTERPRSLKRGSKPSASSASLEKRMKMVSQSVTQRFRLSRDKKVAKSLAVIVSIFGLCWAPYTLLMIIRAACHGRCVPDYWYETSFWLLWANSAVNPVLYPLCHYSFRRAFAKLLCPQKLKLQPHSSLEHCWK

[4] = test system: Sprague Dawley rats; assay: Toxicity Study 2: 7-day oral dose range-finding study in Sprague Dawley rats; assay type: in vivo, rat
Experimental: Three male rats and three female rats were added at 600 mg/kg/day and 3 female rats were added at 300 mg/kg/day for toxicokinetic evaluation.
The following endpoints/parameters were evaluated for toxicology animals: clinical observations, body weights, food consumption, selected haematology, selected clinical chemistry, liver weights, and selected macroscopic and microscopic observations. Toxicokinetic evaluation was performed on samples collected on Day 1 (300 and 600 mg/kg/day dosing) and Day 7 (300 mg/kg/day dosing only).

[5] = test system: male Sprague Dawley rats; assay: Toxicity Study 1: 7-day oral repeat-dose study in male Sprague Dawley rats; assay type: in vivo, rat; details: for tolerability: male rats
Experimental: Three male rats were added at each non-zero dose level for toxicokinetic evaluation. All doses and concentrations, including analyte concentration in plasma, are expressed in terms of the parent “free base” compound.
The following endpoints/parameters were evaluated for toxicology animals: clinical observations, body weights, food consumption measurements, selected haematology and selected clinical chemistry results, liver weights, selected macroscopic and microscopic observations, and selected hepatic gene expression analysis. Toxicokinetic evaluation (serial profiling) was performed on samples collected from satellite animals on Days 1 and 7. For male rats dosed at 30 or 100 mg/kg/day, histopathology observations carried out were on kidneys, mesentery and mandibular lymph node only. For male rats dosed at 0 mg/kg/day (control) and 300 mg/kg/day, histopathology observations carried out were on adrenals, brain, heart, kidneys, liver, lung, mandibular lymph node, mesentery, stomach, testes, and thymus (except that mandibular lymph node observations were for 0 mg/kg/day dosed rats only).

[6] = test system: rats; details: certain oral doses; passive avoidance, water maze, object recognition, attentional set shift; cited from earlier work
[7] = target: T1, histamine H3 receptor (Rattus norvegicus, UniProt Q9QYN8); details: following oral administration to the rat; cited from earlier work
T1 construct: from tissue; host or cells: rat cerebral cortex, crude homogenate
T1 sequence (Q9QYN8 whole entry): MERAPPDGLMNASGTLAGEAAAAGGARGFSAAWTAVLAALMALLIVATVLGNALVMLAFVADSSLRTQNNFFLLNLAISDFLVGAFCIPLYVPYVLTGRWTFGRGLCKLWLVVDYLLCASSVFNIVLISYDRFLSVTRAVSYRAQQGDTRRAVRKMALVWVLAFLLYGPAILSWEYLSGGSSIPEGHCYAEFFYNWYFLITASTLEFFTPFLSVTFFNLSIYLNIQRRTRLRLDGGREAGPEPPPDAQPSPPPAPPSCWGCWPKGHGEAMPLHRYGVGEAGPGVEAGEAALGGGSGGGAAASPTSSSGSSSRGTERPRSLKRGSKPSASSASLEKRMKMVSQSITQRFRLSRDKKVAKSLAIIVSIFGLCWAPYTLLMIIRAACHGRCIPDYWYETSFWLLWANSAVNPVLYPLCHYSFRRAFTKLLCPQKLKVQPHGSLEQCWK

[8] = test system: rodent models; details: five choice task, object recognition, elevated plus maze, acquisition of novel task, passive avoidance; cited from earlier work
[9] = average model: derived from average plasma data and average occupancy

Compound: CC(C)N1CCN(C(=O)c2ccc(OC3CCOCC3)cc2)CC1 [Example 3]
thermodynamic stability of the crystal form [1]: more thermodynamically stable than crystalline Form 1

Compound: CC(C)N1CCN(C(=O)c2ccc(OC3CCOCC3)cc2)CC1.Cl [Example E1]
Plasma clearance ([2]; pig 1 (individual study)): 2.9 L/h
koff ([3]; PIG1, pig, pig 1 (individual study), estimated model parameter): 6.33e-05 s⁻¹
Kd (koff/kon) [3, 9]: 3.37 ng/mL
Kd (koff/kon) ([3]; mean of the individually estimated parameters, n=3 pigs): 3.35 ng/mL
reduction in pig brain H3 receptor occupancy over time, as compared to salt B ([3]; n=3 pigs, preliminary measurements): generally faster reduction in pig brain H3 receptor occupancy
koff ([3]; pig, average model: derived from average plasma data and average occupancy): 0.000152 s⁻¹
koff ([3]; pig, mean of the individually estimated parameters, n=3 pigs): 0.000243 s⁻¹
koff ([3]; pig, pig 2 (individual study), estimated model parameter): 0.00019 s⁻¹
koff ([3]; pig, pig 3 (individual study), estimated model parameter): 0.000477 s⁻¹
tolerability ([4]; female rats, 300 mg/kg/day oral for 7 days (measured as the free base)): moderately well tolerated
tolerability (preliminary conclusion from Toxicity Studies 1 and 2) ([4]; male and female rats, 7 days oral repeat dosing at doses of up to 300 mg/kg/day): well tolerated or moderately well tolerated
tolerability ([5]; 300 mg/kg/day oral for 7 days (measured as the free base)): moderately well tolerated
tolerability ([5]; 30 or 100 mg/kg/day oral for 7 days (measured as the free base)): well tolerated
food consumption ([5]; rat, in vivo, po, 300 mg/kg/day): ca. 0.80 ×pretreatment

Compound: CNC(=O)c1ccc(Oc2ccc3c(c2)CCN(C2CCC2)CC3)nc1 [GSK189254]
performance of rats in cognition paradigms [6]: improved performance
[3]R-α-methylhistamine ex vivo binding in the rat cortex [7]: inhibited

Compound: CC(C)(C)CCC#C[C@@H]1C[C@H]1c1c[nH]cn1 [GT-2331]
effect in rodent cognition models [8]: cognitive enhancing properties

Compound: O=C(c1ccc(OCCCc2cnc[nH]2)cc1)C1CC1 [ciproxifan]
effect in rodent cognition models [8]: cognitive enhancing properties

Compound: NC(=NCc1ccc(Cl)cc1)SCCCc1cnc[nH]1 [clobenpropit]
effect in rodent cognition models [8]: cognitive enhancing properties

Plasma clearance ([2]; average model: derived from average plasma data): 2.9 L/h
Kd (koff/kon) [3, 9]: 1.80 ng/mL
Compound: CC(C)N1CCCN(C(=O)c2ccc(OC3CCOCC3)cc2)CC1 [salt B, reference compound]

Compound: S=C(NC1CCCCC1)N1CCC(c2cnc[nH]2)CC1 [thioperamide]
effect in rodent cognition models [8]: cognitive enhancing properties
